Data taken from article PMC8037182, “Solvothermal Synthesis of Multiple Dihydropyrimidinones at a Time as Inhibitors of Eg5” (Molecules, 2021).

Tests used:
[1] = tested on: Caco-2 cell line; assay: Cytotoxicity MTS assay, Caco-2 cell line; type: cell-based; settings: for OD490 Mean / OD490 Well 1 / OD490 Well 2 / OD490 Well 3: Caco-2 cell line
Summary of the method: (§1)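 Cells seeded at 1000 per well, grown 24 h, then exposed to compound (0.5–100 µM final) for 24 h with 0.025% DMSO blank. MTS reagent added for 2 h at 37 °C, absorbance read at 490 nm; IC50 from non-linear regression of % viability versus concentration, three independent duplicate experiments.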

[2] = tested on: Hela cell line; assay: Cytotoxicity MTS assay, Hela cell line; type: cell-based; settings: for OD490 value, Mean / OD490 value, Well 1 / OD490 value, Well 2 / OD490 value, Well 3: Hela cell line, MTS;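 on OD490 value, Mean: blank control wells received 0.025% DMSO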;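 on OD490 value, Well 1: blank control wells received 0.025% DMSO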;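 on OD490 value, Well 2: blank control wells received 0.025% DMSO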;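 on OD490 value, Well 3: blank control wells received 0.025% DMSO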
Summary of the method: as §1

`CCOC(=O)c1c(C2NC(=O)NC(C)=C2C(=O)Nc2ccccc2OC)[nH]c(C(=O)OC)c1C` (centres unmarked) [D1] was tested, and the “OD490 Mean” value ([1]; 0.5μM, first assay) was 0.6107, the “OD490 Well 1” value ([1]; 0.5μM, first assay) was 0.5649 and the “OD490 Well 2” value ([1]; 0.5μM, first assay) was 0.5391. For the same compound, the “OD490 Well 3” value ([1]; 0.5μM, first assay) was 0.7282, the “OD490 Mean” value ([1]; 0.5μM, second assay) was 0.6066 and the “OD490 Well 1” value ([1]; 0.5μM, second assay) was 0.6391. For the same compound, the “OD490 Well 2” value ([1]; 0.5μM, second assay) was 0.6324, the “OD490 Well 3” value ([1]; 0.5μM, second assay) was 0.5484 and the “OD490 Mean” value ([1]; 0.5μM, third assay) was 0.6142. The “OD490 Well 1” value ([1]; 0.5μM, third assay) was 0.6774, the “OD490 Well 2” value ([1]; 0.5μM, third assay) was 0.5749 and the “OD490 Well 3” value ([1]; 0.5μM, third assay) was 0.5903. The “OD490 Mean” value ([1]; 1μM, first assay) was 0.6086, the “OD490 Well 1” value ([1]; 1μM, first assay) was 0.6046 and the “OD490 Well 2” value ([1]; 1μM, first assay) was 0.6209. The “OD490 Well 3” value ([1]; 1μM, first assay) was 0.6002, the “OD490 Mean” value ([1]; 1μM, second assay) was 0.6031 and the “OD490 Well 1” value ([1]; 1μM, second assay) was 0.6102. For the same compound, the “OD490 Well 2” value ([1]; 1μM, second assay) was 0.5846, the “OD490 Well 3” value ([1]; 1μM, second assay) was 0.6145 and the “OD490 Mean” value ([1]; 1μM, third assay) was 0.6182. The “OD490 Well 1” value ([1]; 1μM, third assay) was 0.6046, the “OD490 Well 2” value ([1]; 1μM, third assay) was 0.6112 and the “OD490 Well 3” value ([1]; 1μM, third assay) was 0.6387. The “OD490 Mean” value ([1]; 10μM, first assay) was 0.6584, the “OD490 Well 1” value ([1]; 10μM, first assay) was 0.6611 and the “OD490 Well 2” value ([1]; 10μM, first assay) was 0.6501. The “OD490 Well 3” value ([1]; 10μM, first assay) was 0.6639, the “OD490 Mean” value ([1]; 10μM, second assay) was 0.6246 and the “OD490 Well 1” value ([1]; 10μM, second assay) was 0.6493. The “OD490 Well 2” value ([1]; 10μM, second assay) was 0.5502, the “OD490 Well 3” value ([1]; 10μM, second assay) was 0.6742 and the “OD490 Mean” value ([1]; 10μM, third assay) was 0.6177. The “OD490 Well 1” value ([1]; 10μM, third assay) was 0.6611, the “OD490 Well 2” value ([1]; 10μM, third assay) was 0.5578 and the “OD490 Well 3” value ([1]; 10μM, third assay) was 0.6341. For the same compound, the “OD490 Mean” value ([1]; 25μM, first assay) was 0.5948, the “OD490 Well 1” value ([1]; 25μM, first assay) was 0.6149 and the “OD490 Well 2” value ([1]; 25μM, first assay) was 0.5791. The “OD490 Well 3” value ([1]; 25μM, first assay) was 0.5903, the “OD490 Mean” value ([1]; 25μM, second assay) was 0.5865 and the “OD490 Well 1” value ([1]; 25μM, second assay) was 0.5801. The “OD490 Well 2” value ([1]; 25μM, second assay) was 0.6127, the “OD490 Well 3” value ([1]; 25μM, second assay) was 0.5666 and the “OD490 Mean” value ([1]; 25μM, third assay) was 0.5866. For the same compound, the “OD490 Well 1” value ([1]; 25μM, third assay) was 0.5903, the “OD490 Well 2” value ([1]; 25μM, third assay) was 0.5721 and the “OD490 Well 3” value ([1]; 25μM, third assay) was 0.5974. For the same compound, the “OD490 Mean” value ([1]; 50μM, first assay) was 0.5045, the “OD490 Well 1” value ([1]; 50μM, first assay) was 0.5048 and the “OD490 Well 2” value ([1]; 50μM, first assay) was 0.5114. For the same compound, the “OD490 Well 3” value ([1]; 50μM, first assay) was 0.4972, the “OD490 Mean” value ([1]; 50μM, second assay) was 0.5178 and the “OD490 Well 1” value ([1]; 50μM, second assay) was 0.4983. The “OD490 Well 2” value ([1]; 50μM, second assay) was 0.5020, the “OD490 Well 3” value ([1]; 50μM, second assay) was 0.5531 and the “OD490 Mean” value ([1]; 50μM, third assay) was 0.5361. For the same compound, the “OD490 Well 1” value ([1]; 50μM, third assay) was 0.6048, the “OD490 Well 2” value ([1]; 50μM, third assay) was 0.5048 and the “OD490 Well 3” value ([1]; 50μM, third assay) was 0.4988. For the same compound, the “OD490 Mean” value ([1]; 100μM, first assay) was 0.5483, the “OD490 Well 1” value ([1]; 100μM, first assay) was 0.6273 and the “OD490 Well 2” value ([1]; 100μM, first assay) was 0.5214. For the same compound, the “OD490 Well 3” value ([1]; 100μM, first assay) was 0.4962, the “OD490 Mean” value ([1]; 100μM, second assay) was 0.5031 and the “OD490 Well 1” value ([1]; 100μM, second assay) was 0.5662. For the same compound, the “OD490 Well 2” value ([1]; 100μM, second assay) was 0.4999, the “OD490 Well 3” value ([1]; 100μM, second assay) was 0.4431 and the “OD490 Mean” value ([1]; 100μM, third assay) was 0.4792. The “OD490 Well 1” value ([1]; 100μM, third assay) was 0.5214, the “OD490 Well 2” value ([1]; 100μM, third assay) was 0.4347 and the “OD490 Well 3” value ([1]; 100μM, third assay) was 0.4814. The IC50 ([1]; MTS assay, 24 h exposure) was 108 µM, the “OD490 value, Mean” value ([2]; 0.5μM, first assay) was 2.5955 and the “OD490 value, Well 1” value ([2]; 0.5μM, first assay) was 2.6286. For the same compound, the “OD490 value, Well 2” value ([2]; 0.5μM, first assay) was 2.5425, the “OD490 value, Well 3” value ([2]; 0.5μM, first assay) was 2.6155 and the “OD490 value, Mean” value ([2]; 0.5μM, second assay) was 2.5919. For the same compound, the “OD490 value, Well 1” value ([2]; 0.5μM, second assay) was 2.6314, the “OD490 value, Well 2” value ([2]; 0.5μM, second assay) was 2.6010 and the “OD490 value, Well 3” value ([2]; 0.5μM, second assay) was 2.5433. The “OD490 value, Mean” value ([2]; 0.5μM, third assay) was 2.5096, the “OD490 value, Well 1” value ([2]; 0.5μM, third assay) was 2.7036 and the “OD490 value, Well 2” value ([2]; 0.5μM, third assay) was 2.5565. For the same compound, the “OD490 value, Well 3” value ([2]; 0.5μM, third assay) was 2.2688, the “OD490 value, Mean” value ([2]; 1μM, first assay) was 2.6416 and the “OD490 value, Well 1” value ([2]; 1μM, first assay) was 2.6885. For the same compound, the “OD490 value, Well 2” value ([2]; 1μM, first assay) was 2.5442, the “OD490 value, Well 3” value ([2]; 1μM, first assay) was 2.6922 and the “OD490 value, Mean” value ([2]; 1μM, second assay) was 2.5793. For the same compound, the “OD490 value, Well 1” value ([2]; 1μM, second assay) was 2.5367, the “OD490 value, Well 2” value ([2]; 1μM, second assay) was 2.4698 and the “OD490 value, Well 3” value ([2]; 1μM, second assay) was 2.7314. The “OD490 value, Mean” value ([2]; 1μM, third assay) was 2.7183, the “OD490 value, Well 1” value ([2]; 1μM, third assay) was 2.6969 and the “OD490 value, Well 2” value ([2]; 1μM, third assay) was 2.7546. The “OD490 value, Well 3” value ([2]; 1μM, third assay) was 2.7033, the “OD490 value, Mean” value ([2]; 10μM, first assay) was 2.4106 and the “OD490 value, Well 1” value ([2]; 10μM, first assay) was 2.3442. The “OD490 value, Well 2” value ([2]; 10μM, first assay) was 2.5603, the “OD490 value, Well 3” value ([2]; 10μM, first assay) was 2.3272 and the “OD490 value, Mean” value ([2]; 10μM, second assay) was 2.3296. For the same compound, the “OD490 value, Well 1” value ([2]; 10μM, second assay) was 2.6351, the “OD490 value, Well 2” value ([2]; 10μM, second assay) was 2.1367 and the “OD490 value, Well 3” value ([2]; 10μM, second assay) was 2.2169. For the same compound, the “OD490 value, Mean” value ([2]; 10μM, third assay) was 2.4826, the “OD490 value, Well 1” value ([2]; 10μM, third assay) was 2.5635 and the “OD490 value, Well 2” value ([2]; 10μM, third assay) was 2.3145. For the same compound, the “OD490 value, Well 3” value ([2]; 10μM, third assay) was 2.5698, the “OD490 value, Mean” value ([2]; 25μM, first assay) was 2.1398 and the “OD490 value, Well 1” value ([2]; 25μM, first assay) was 2.1204. For the same compound, the “OD490 value, Well 2” value ([2]; 25μM, first assay) was 2.2546, the “OD490 value, Well 3” value ([2]; 25μM, first assay) was 2.0445 and the “OD490 value, Mean” value ([2]; 25μM, second assay) was 2.1914. The “OD490 value, Well 1” value ([2]; 25μM, second assay) was 2.2361, the “OD490 value, Well 2” value ([2]; 25μM, second assay) was 2.1235 and the “OD490 value, Well 3” value ([2]; 25μM, second assay) was 2.2145. For the same compound, the “OD490 value, Mean” value ([2]; 25μM, third assay) was 2.1507, the “OD490 value, Well 1” value ([2]; 25μM, third assay) was 2.2233 and the “OD490 value, Well 2” value ([2]; 25μM, third assay) was 2.2142. The “OD490 value, Well 3” value ([2]; 25μM, third assay) was 2.0145, the “OD490 value, Mean” value ([2]; 50μM, first assay) was 2.0448 and the “OD490 value, Well 1” value ([2]; 50μM, first assay) was 2.0719. The “OD490 value, Well 2” value ([2]; 50μM, first assay) was 2.1034, the “OD490 value, Well 3” value ([2]; 50μM, first assay) was 1.9590 and the “OD490 value, Mean” value ([2]; 50μM, second assay) was 2.0574. The “OD490 value, Well 1” value ([2]; 50μM, second assay) was 1.9987, the “OD490 value, Well 2” value ([2]; 50μM, second assay) was 2.1136 and the “OD490 value, Well 3” value ([2]; 50μM, second assay) was 2.0599. The “OD490 value, Mean” value ([2]; 50μM, third assay) was 2.0424, the “OD490 value, Well 1” value ([2]; 50μM, third assay) was 2.0136 and the “OD490 value, Well 2” value ([2]; 50μM, third assay) was 1.9658. For the same compound, the “OD490 value, Well 3” value ([2]; 50μM, third assay) was 2.1478, the “OD490 value, Mean” value ([2]; 100μM, first assay) was 1.9714 and the “OD490 value, Well 1” value ([2]; 100μM, first assay) was 1.9106. For the same compound, the “OD490 value, Well 2” value ([2]; 100μM, first assay) was 1.9576, the “OD490 value, Well 3” value ([2]; 100μM, first assay) was 2.0459 and the “OD490 value, Mean” value ([2]; 100μM, second assay) was 1.9690. The “OD490 value, Well 1” value ([2]; 100μM, second assay) was 2.0360, the “OD490 value, Well 2” value ([2]; 100μM, second assay) was 1.8490 and the “OD490 value, Well 3” value ([2]; 100μM, second assay) was 2.0220. For the same compound, the “OD490 value, Mean” value ([2]; 100μM, third assay) was 1.9075, the “OD490 value, Well 1” value ([2]; 100μM, third assay) was 2.0141 and the “OD490 value, Well 2” value ([2]; 100μM, third assay) was 1.8426. The “OD490 value, Well 3” value ([2]; 100μM, third assay) was 1.8657 and the IC50 ([2]; MTS assay, 24 h exposure) was 128 µM.
